Among the data in patent publication US20240382482A1, “PLASMA KALLIKREIN INHIBITORS” (TAKEDA PHARMACEUTICAL COMPANY LIMITED, priority 2021, published 2024) are EC50 values, retold here.

The term pEC50 denotes the EC50 on a negative log10 scale, so that one unit is a factor of ten.

This assay addresses human activated kallikrein enzyme (Homo sapiens, UniProt P03952). Put plainly: Inhibition of human activated kallikrein enzyme, fluorogenic peptide substrate assay (500 pM enzyme format). The format is biochemical. The note with it: 500 pM activated kallikrein, 300 μM PFR-AMC substrate, 30 min preincubation, 10 min reaction, room temperature; read-out: Primary Dose Response Assay: Average EC50. The method in brief:
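500 pM enzyme preincubated 30 min at room temperature with inhibitor in 20 mM Tris pH 7.5, 150 mM NaCl, 1 mM EDTA, 0.1% PEG-400, 0.1% Triton X-100. Reaction started with 300 μM PFR-AMC and run 10 min at room temperature. AMC fluorescence read at ex 380/em 460 nm, and EC50 values reported as ranges.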

pEC50: −log10 of the molar value. Where a name gives a salt, the structure may show the parent alone.

Chain of human activated kallikrein enzyme (P03952 391-638 limits assumed): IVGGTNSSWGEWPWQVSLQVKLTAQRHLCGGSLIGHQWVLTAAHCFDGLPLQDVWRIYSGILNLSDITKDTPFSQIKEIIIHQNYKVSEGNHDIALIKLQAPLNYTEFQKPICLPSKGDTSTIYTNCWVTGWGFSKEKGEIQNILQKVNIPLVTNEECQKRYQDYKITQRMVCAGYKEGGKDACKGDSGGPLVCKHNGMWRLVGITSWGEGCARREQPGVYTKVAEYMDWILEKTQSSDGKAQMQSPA
Chain of human activated kallikrein enzyme (P03952 20-390 partner limits assumed): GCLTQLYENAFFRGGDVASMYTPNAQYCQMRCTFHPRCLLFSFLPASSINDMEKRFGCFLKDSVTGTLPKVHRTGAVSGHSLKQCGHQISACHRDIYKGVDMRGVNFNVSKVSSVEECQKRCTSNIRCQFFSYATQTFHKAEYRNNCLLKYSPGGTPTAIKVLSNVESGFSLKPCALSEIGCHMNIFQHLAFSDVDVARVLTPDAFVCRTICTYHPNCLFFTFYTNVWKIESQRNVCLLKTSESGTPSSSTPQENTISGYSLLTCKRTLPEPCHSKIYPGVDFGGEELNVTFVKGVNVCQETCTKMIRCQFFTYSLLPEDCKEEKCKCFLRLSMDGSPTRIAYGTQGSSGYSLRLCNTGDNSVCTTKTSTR

Consider `O=C(O)CCc1cc(C2CC2)cn2cc(CNc3cc(NC(=O)Cc4ncn5ccc(Cl)cc45)ncn3)nc12` [Example 39, 3-(2-(((6-(2-(7-chloroimidazo[1,5-a]pyridin-1-yl)acetamido)pyrimidin-4-yl)amino)methyl)-6-cyclopropylimidazo[1,2-a]pyridin-8-yl)propanoic acid], for which the pEC50 was not below 8.30.
As to `COC(C(=O)Nc1cc(NCc2cn3cc(C4CC4)ccc3n2)ncn1)c1ncn2ccc(Cl)cc12` (stereo not shown) [Example 6, 2-(7-chloroimidazo[1,5-a]pyridin-1-yl)-N-(6-(((6-cyclopropylimidazo[1,2-a]pyridin-2-yl)methyl)amino)pyrimidin-4-yl)-2-methoxyacetamide], the pEC50 was 6.30 to 7.30.
In the case of `O=C(CC1(c2cccc(Cl)c2)CC1)Nc1cc(NCc2cn3cc(C4CC4)ccc3n2)ccn1` [Example 126, 2-(1-(3-chlorophenyl)cyclopropyl)-N-(4-(((6-cyclopropylimidazo[1,2-a]pyridin-2-yl)methyl)amino)pyridin-2-yl)acetamide], the pEC50 is 5.05 to 6.30.
The value for `O=C(Cc1ncn2ccc(Cl)cc12)Nc1cc(OCc2cn3cc(C4CC4)ccc3n2)cnn1` [Example 32, 2-(7-chloroimidazo[1,5-a]pyridin-1-yl)-N-(5-((6-cyclopropylimidazo[1,2-a]pyridin-2-yl)methoxy)pyridazin-3-yl)acetamide] was not below 8.30; that for `O=C(Cc1ncn2ccc(Cl)cc12)Nc1cc(C(=O)c2cn3cc(C4CC4)ccc3n2)ncn1` [Example 58, 2-(7-chloroimidazo[1,5-a]pyridin-1-yl)-N-(6-(6-cyclopropylimidazo[1,2-a]pyridine-2-carbonyl)pyrimidin-4-yl)acetamide] was 5.05 to 6.30; that for `O=c1c(NCc2cn3cc(C4CC4)ccc3n2)c(NCc2ncn3ccc(Cl)cc23)c1=O` [Example 68, 3-(((7-chloroimidazo[1,5-a]pyridin-1-yl)methyl)amino)-4-(((6-cyclopropylimidazo[1,2-a]pyridin-2-yl)methyl)amino)cyclobut-3-ene-1,2-dione] was 7.30 to 8.30.
Turning to `CC(O)(C(=O)Nc1cc(NCc2cn3cc(C4CC4)ccc3n2)ncn1)c1ncn2ccc(Cl)c(F)c12` (stereo not shown) [Example 106, 2-(7-chloro-8-fluoroimidazo[1,5-a]pyridin-1-yl)-N-(6-(((6-cyclopropylimidazo[1,2-a]pyridin-2-yl)methyl)amino)pyrimidin-4-yl)-2-hydroxypropanamide], the negative logarithm of the EC50 (pEC50) was less than 5.05.
The value for `CCOC(=O)Cc1cc(C2CC2)cn2cc(COc3cc(NCc4c(C)cc(C(=N)N)cc4C)ncn3)nc12` [Example 94, ethyl 2-(2-((6-(4-carbamimidoyl-2,6-dimethylbenzylamino)pyrimidin-4-yloxy)methyl)-6-cyclopropylimidazo[1,2-a]pyridin-8-yl)acetate] was not below 8.30; that for `O=C(NCc1ncn2ccc(Cl)cc12)c1cnnc(NCc2cn3cc(C4CC4)ccc3n2)c1` [Example 65, N-((7-chloroimidazo[1,5-a]pyridin-1-yl)methyl)-6-(((6-cyclopropylimidazo[1,2-a]pyridin-2-yl)methyl)amino)pyridazine-4-carboxamide] was 7.30 to 8.30.
With `CCOC(=O)NC(=N)c1cc(C)c(CNc2cc(OCc3cn4cc(C5CC5)ccc4n3)ncn2)c(C)c1` [Example 83, ethyl ((4-(((6-((6-cyclopropylimidazo[1,2-a]pyridin-2-yl)methoxy)pyrimidin-4-yl)amino)methyl)-3,5-dimethylphenyl)(imino)methyl)carbamate] the figure was 6.30 to 7.30; with `O=C(Cc1nncc2ccc(Cl)cc12)Nc1cc(NCc2cn3cc(C4CC4)ccc3n2)ncn1` [Example 105, 2-(7-chlorophthalazin-1-yl)-N-(6-(((6-cyclopropylimidazo[1,2-a]pyridin-2-yl)methyl)amino)pyrimidin-4-yl)acetamide], 7.30 to 8.30.
With `Cc1cc(C(=N)N)cc(C)c1CNc1cc(OCc2cn3cc(Cl)ccc3n2)ncn1` [Example 69, 4-(((6-((6-chloroimidazo[1,2-a]pyridin-2-yl)methoxy)pyrimidin-4-yl)amino)methyl)-3,5-dimethylbenzimidamide formic acid salt] the figure was not below 8.30; with `Nc1nccc2c1CCC2Nc1cc(NCc2cn3cc(C4CC4)ccc3n2)ncn1` (stereo not shown) [Example 56, N^5-(6-(((6-cyclopropylimidazo[1,2-a]pyridin-2-yl)methyl)amino)pyrimidin-4-yl)-6,7-dihydro-5H-cyclopenta[c]pyridine-1,5-diamine], 7.30 to 8.30.
Regarding `Cc1cc(N)nc(C)c1CNc1cc(NCc2cn3cc(C4CC4)ccc3n2)ncn1` [Example 111, N^4-((6-amino-2,4-dimethylpyridin-3-yl)methyl)-N^6-((6-cyclopropylimidazo[1,2-a]pyridin-2-yl)methyl)pyrimidine-4,6-diamine], the pEC50 was not below 8.30.
`O=C(/C=C/c1cccc(Cl)c1)Nc1cc(NCc2cn3cc(C4CC4)ccc3n2)ncn1` [Example 50, (E)-3-(3-chlorophenyl)-N-(6-(((6-cyclopropylimidazo[1,2-a]pyridin-2-yl)methyl)amino)pyrimidin-4-yl)acrylamide]: the pEC50 is 7.30 to 8.30.
With `O=C(Cn1nnc2ccc(Cl)cc21)Nc1cc(NCc2cn3cc(C4CC4)ccc3n2)ccn1` [Example 27, 2-(6-chloro-1H-benzo[d][1,2,3]triazol-1-yl)-N-(4-(((6-cyclopropylimidazo[1,2-a]pyridin-2-yl)methyl)amino)pyridin-2-yl)acetamide] the figure was 5.05 to 6.30; with `N#Cc1cc(C2CC2)cn2cc(COc3cc(NC(=O)Cc4ncn5ccc(Cl)cc45)ncn3)nc12` [Example 22, 2-(7-chloroimidazo[1,5-a]pyridin-1-yl)-N-(6-((8-cyano-6-cyclopropylimidazo[1,2-a]pyridin-2-yl)methoxy)pyrimidin-4-yl)acetamide], 7.30 to 8.30.
With `Cc1cc(C(=N)N)cc(C)c1CNc1cc(NCc2cn3cc(C4CC4)ccc3n2)cnn1` [Example 98, 4-(((5-(((6-cyclopropylimidazo[1,2-a]pyridin-2-yl)methyl)amino)pyridazin-3-yl)amino)methyl)-3,5-dimethylbenzimidamide] the figure was not below 8.30.
Regarding `O=C(Cc1cc2c(Cl)c[nH]c2cc1F)Nc1cc(NCc2cn3cc(C4CC4)ccc3n2)ncn1` [Example 131, 2-(3-chloro-6-fluoro-1H-indol-5-yl)-N-(6-(((6-cyclopropylimidazo[1,2-a]pyridin-2-yl)methyl)amino)pyrimidin-4-yl)acetamide], the negative-log EC50 (pEC50) is 5.05 to 6.30.
In the case of `O=C(Cn1cc(Cl)ccc1=O)Nc1cc(NCc2cn3cc(C4CC4)ccc3n2)ncn1` [Example 119, 2-(5-chloro-2-oxopyridin-1 (2H)-yl)-N-(6-(((6-cyclopropylimidazo[1,2-a]pyridin-2-yl)methyl)amino)pyrimidin-4-yl)acetamide], the pEC50 was less than 5.05.
With `O=C(Cc1ncn2ccc(Cl)cc12)Nc1cc(Cc2cn3cc(C4CC4)ccc3n2)ncn1` [Example 57, 2-(7-chloroimidazo[1,5-a]pyridin-1-yl)-N-(6-((6-cyclopropylimidazo[1,2-a]pyridin-2-yl)methyl)pyrimidin-4-yl)acetamide formic acid salt] the figure was not below 8.30; with `O[C@H]1C[C@H](c2cn3cc(C4CC4)ccc3n2)N(c2cc(NCc3cc4cc[nH]c4cc3F)ncn2)C1` [Example 140, (3S,5R)-5-(6-cyclopropylimidazo[1,2-a]pyridin-2-yl)-1-(6-(((6-fluoro-1H-indol-5-yl)methyl)amino)pyrimidin-4-yl)pyrrolidin-3-ol], 5.05 to 6.30.
